In brackets after ≈: the same amount, converted by molar mass. Where two headings read alike, the source gives them in different places.
What was measured:
[1] = test system: P. aeruginosa NH57388A; assay: MIC, broth microdilution; assay type: cell-based; conditions: P. aeruginosa NIH57388A CF
Procedure: (§1) Bacterial strains MIC testing: P. aeruginosa ATCC 27853 and NH57388A were used in these studies. MICs were determined by a broth microdilution assay according to CLSI reference methods (Methods for dilution of antimicrobial susceptibility test for bacteria that grow aerobically. Seventh Edition: Clinical and Laboratory Standards Institute (2006) M&-A7, incorporated by reference in its entirety). Assays were performed in a final volume of 100 μl. The bacterial suspensions were adjusted to yield a cell density of 5×10^5 CFU/ml. Antibiotics were prepared at a concentration equivalent to twofold the highest desired final concentration in culture medium and were then diluted directly into 96-well microtiter plates. Microtiter plates were incubated for 24 h at 35° C. and were read by using a microtiter plate reader (Molecular Devices) at 600 nm as well as by visual observation by using a microtiter plate reading mirror.

[2] = test system: P. aeruginosa ATCC 27853; assay: MIC, broth microdilution; assay type: cell-based; conditions: Pseudomonas aeruginosa, ATCC27853, P. aeruginosa ATCC27853
Procedure: as §1

[3] = test system: P. aeruginosa ATCC 27853; assay: Acute mouse lung infection model; conditions: mice; for survival rate: monitored over 9 days; for maximum dose, limited due to toxicity: aerosol route
Procedure: Aerosol Administration of antibiotics: Antibiotics were aerosolized using a microspray aerosol device (MicroSprayer Model IA-C, PennCentury, Philadelphia, Pa.) attached to a FMJ-250 High-Pressure Syringe (PennCentury, Philadelphia, Pa.). […] For administration, each mouse was anesthetized (5% isoflurane in oxygen running at 4 L/min) and positioned securely at a 45-50° angle by the upper teeth, the microspray aerosol tip was inserted to the bifurcation and a 50 μl volume was administered.
The bacterial suspensions were adjusted to approximately 1-6×10^5 CFU/ml by correlation of the absorbance at 600 nm with predetermined plate counts. […] On day 4, mice were infected by intratracheal (IT) instillation of 0.05 ml of inoculum using a curved oral gavage tip attached to a 1 ml syringe. […] Antibiotics were aerosolized using a microspray aerosol device. All infections and aerosol treatments were performed under isoflurane anesthesia (5% isoflurane in oxygen running at 4 L/min). An untreated group of mice (n=8) was sacrificed prior to the initiation of treatment to determine baseline bacterial counts. […] The lungs were removed aseptically and homogenized (Pro200 homogenizer, Pro Scientific, Monroe, Conn.) in 1 ml of sterile saline. Serial 10-fold dilutions of the homogenized lung were plated on Mueller-hinton agar (MHA), and colonies counted.
In addition, due to the need for anesthesia for treatment, the maximum number of daily doses was limited to two.

[4] = in vivo; conditions: rat, 10 mg/kg
Procedure: This example relates to aerosol and intravenous administration of fluoroquinolones in saline. A rat pharmacokinetic model was used to compare intravenous and pulmonary administration of fluoroquinolones. […] Doses were administered via the lateral tail vein, or to the lung just above the tracheal bifurcation using a micro-spray aerosol device (Penn Century, Philadelphia, Pa.).
Approximately 0.3 ml blood samples were taken from 2-6 rats at each timepoint via an indwelling jugular vein cannula, and collected in lithium heparin tubes. Bronchial alveolar lavage (BAL) and lung tissue were collected following euthanasia. […] Sample concentrations were determined against a standard curve.

[5] = test system: P. aeruginosa NH57388A; assay: Chronic mouse lung infection model; assay type: in vivo; conditions: mice, aerosol tobramycin 60 mg/kg twice a day for three consecutive days
Procedure: Bacterial cells were harvested by centrifugation (23,000×g, 30 min, at 4° C.) and resuspended in 3-6 ml of MHB. The supernatant was collected and placed in 80° C. water-bath for 30 min. […] The precipitated alginate was collected with a sterile bacterial loop and washed several times in sterile saline. The purified alginate was then resuspended in 10 ml of sterile saline and stirred vigorously to form a homogeneous suspension. […] The bacterial suspension was diluted (1:10) in the alginate suspension to yield about 10^8 CFU/ml. […] On day 4, the mice were infected using a curved bead-tipped oral gavage attached to a 1 ml syringe while under isoflurane anesthesia.

[6] = aerosol dose of […], adults with cystic fibrosis, Cooney et al. 1994; cited from earlier work
[7] = Pseudomonas aeruginosa, NH57388A, read-out: MIC
[8] = male, Sprague-Dawley, in vivo, inhaled or intranasal
[9] = male, Sprague-Dawley, in vivo, iv

Row | Compound | MIC [1, 7] [µg/mL] | maximum dose, limited due to toxicity [3] [mg/kg] | F, % from Lung vs IV ([4]; male, Sprague-Dawley, in vivo) [%] | MAT ([4]; male, Sprague-Dawley, in vivo) [h] | AUC [4, 8] [ng·h/mL] | AUC(0-inf) [4, 8] [ng·h/mL] | MRT [4, 8] [h] | half-life [4, 8] [h] | AUC [4, 9] [ng·h/mL] | AUC(0-inf) [4, 9] [ng·h/mL] | MRT [4, 9] [h] | half-life [4, 9] [h] | other results
1 | C[C@H]1[C@H](NC(=O)/C(=N\OC(C)(C)C(=O)O)c2csc(N)n2)C(=O)N1S(=O)(=O)O [Aztreonam, aztreonam] | 4 (≈ 9.19 µM) | 400 |  |  |  |  |  |  |  |  |  |  | MIC [2]: 4 µg/mL (≈ 9.19 µM); survival rate ([3]; aerosol 800 mg/kg/day (400 mg/kg BID)): 20%; mean reductions in bacterial counts ([3]; aerosol aztreonam 400 mg/kg twice a day for 2 consecutive days): 0.24 log CFU per lung
2 | O=C(O)c1cn(C2CC2)c2cc(N3CCNCC3)c(F)cc2c1=O [Ciprofloxacin, ciprofloxacin] |  |  |  |  |  |  |  |  |  |  |  |  | MAT ([4]; Aerosol, in saline): 0.59 h
3 | COc1c(N2CCNC(C)C2)c(F)cc2c(=O)c(C(=O)O)cn(C3CC3)c12 (stereo not shown) [Gatifloxacin, gatifloxacin] |  |  | 100 | 0 | 3120 | 5830 | 1.34 | 1.13 | 350 | 5310 | 1.39 | 1.06 | 
4 | CO/N=C1\CN(c2nc3c(cc2F)c(=O)c(C(=O)O)cn3C2CC2)CC1CN (stereo not shown) [Gemifloxacin, gemifloxacin] |  |  | 86 | 0.65 | 140000 | 5860 | 2.06 | 1.68 | 900 | 4540 | 1.41 | 1.04 | 
5 | CCn1cc(C(=O)O)c(=O)c2cc(F)c(N3CCNCC3)cc21 [Norfloxacin, norfloxacin] |  |  | 100 | 0 | 24600 | 4460 | 1.29 | 1.13 | 800 | 4650 | 1.59 | 1.21 | 
6 | NC[C@H]1O[C@H](O[C@H]2[C@H](O)[C@@H](O[C@H]3O[C@H](CO)[C@@H](O)[C@H](N)[C@H]3O)[C@H](N)C[C@@H]2N)[C@H](N)C[C@@H]1O [Tobramycin, tobramycin] | < 1 | 60 |  |  |  |  |  |  |  |  |  |  | MIC [1]: 0.5 µg/mL (≈ 1.07 µM); survival rate ([3]; aerosol 120 mg/kg/day (60 mg/kg BID)): 60%; mean reductions in bacterial counts ([3]; aerosol tobramycin 60 mg/kg twice a day for 2 consecutive days): 2.70 log CFU per lung; mean log CFU reductions [5]: 2.9 log CFU; bioavailability [6]: about 9%
